Data published in PMC9046087, “Structural basis of tethered agonism of the adhesion GPCRs ADGRD1 and ADGRF1” (Nature, 2022).
Residue numbers refer to the chain shown, from its start. Each block holds one molecule with its values, some of them ahead of it. Ends that are not written are not given here.

Columns and labels:
ADGRF1 [1] = molecular target: T1, ADGRF1 (Homo sapiens, UniProt Q5T601); assay: BRET assay using TRUPATH biosensors, Gi activation of ADGRF1; type: cell-based; details: ADGRF1 WT; for Emax (mean ± s.e.m.): n = 3; for EC50: n = 3, read-out: pEC50 (mean ± s.e.m.) (converted)
T1 construct: Flag (N); expressed in transfected cells; host or cells: HEK293F
T1 sequence (Q5T601 20-910): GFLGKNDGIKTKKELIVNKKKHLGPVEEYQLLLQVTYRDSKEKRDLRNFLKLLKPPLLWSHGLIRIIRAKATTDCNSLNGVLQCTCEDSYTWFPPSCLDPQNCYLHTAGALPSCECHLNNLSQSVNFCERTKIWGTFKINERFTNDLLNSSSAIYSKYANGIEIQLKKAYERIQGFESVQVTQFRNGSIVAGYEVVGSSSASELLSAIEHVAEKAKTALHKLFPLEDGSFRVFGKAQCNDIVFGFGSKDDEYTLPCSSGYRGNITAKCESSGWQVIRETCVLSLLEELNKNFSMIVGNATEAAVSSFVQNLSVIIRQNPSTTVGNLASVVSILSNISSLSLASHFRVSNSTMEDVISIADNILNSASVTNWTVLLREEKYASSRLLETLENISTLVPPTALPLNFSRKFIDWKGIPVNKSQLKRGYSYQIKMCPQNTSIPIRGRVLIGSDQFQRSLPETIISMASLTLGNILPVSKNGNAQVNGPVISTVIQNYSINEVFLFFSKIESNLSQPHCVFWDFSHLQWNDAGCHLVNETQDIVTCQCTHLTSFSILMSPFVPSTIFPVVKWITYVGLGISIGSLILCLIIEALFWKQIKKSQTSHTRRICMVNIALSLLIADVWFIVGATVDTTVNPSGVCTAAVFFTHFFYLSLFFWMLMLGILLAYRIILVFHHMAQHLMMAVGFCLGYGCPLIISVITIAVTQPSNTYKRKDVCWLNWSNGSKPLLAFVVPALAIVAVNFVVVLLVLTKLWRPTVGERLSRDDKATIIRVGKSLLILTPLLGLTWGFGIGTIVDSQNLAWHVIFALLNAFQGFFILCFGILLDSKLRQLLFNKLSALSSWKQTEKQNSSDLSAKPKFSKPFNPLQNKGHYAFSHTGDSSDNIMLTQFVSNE
Procedure: (§1) To study the synthetic stalk peptide-induced G protein activation of ADGRD1 and ADGRF1, a BRET assay using TRUPATH biosensors was conducted to measure the proximal interaction between RLuc8 fused to the Gα subunit and GFP2 fused to the Gγ subunit. The TRUPATH suite of biosensors was obtained from Addgene (Addgene kit no. 1000000163) as a gift from B. Roth, including GαsS-RLuc8, Gαi1-RLuc8, Gβ3 and Gγ9-GFP2 as previously described.
(§2) The wild-type or mutant ADGRD1 and ADGRF1 were transiently co-transfected with plasmids encoding Gα-RLuc8 (GαsS-RLuc8 for Gs activation assay; Gαi1-RLuc8 for Gi activation assay), Gβ3 and Gγ9-GFP2 at a ratio of 2:1:1:1 (receptor plasmid, 800 ng; G protein subunit plasmids, 400 ng for each) in 2 ml HEK293F cells at a density of 1.2 × 10^6 cells per ml. Cell cultivation and receptor surface expression measurement were performed as described above. The cells were plated into 96-well white plates (40,000 cells per well) in 60 μl of assay buffer and incubated at 37 °C for 30 min. Then 10 μl of freshly prepared 50 μM coelenterazine 400a (Nanolight Technologies) was added. […] The cells were stimulated with 30 μl of synthetic stalk peptide at different concentrations and the BRET signals were monitored continuously five times. The last measurements were used in data analysis. The BRET ratios were calculated as the ratio of the GFP2 emission to RLuc8 emission.

ADGRD1 = molecular target: T2, ADGRD1 (Homo sapiens, UniProt Q6QNK2); assay: BRET assay using TRUPATH biosensors, G protein activation of ADGRD1; type: cell-based; details: Gs, ADGRD1 WT, n = 3; for EC50: read-out: pEC50 (mean ± s.e.m.) (converted)
T2 construct: Flag (N); expressed in transfected cells; host or cells: HEK293F
T2 sequence (Q6QNK2 26-874): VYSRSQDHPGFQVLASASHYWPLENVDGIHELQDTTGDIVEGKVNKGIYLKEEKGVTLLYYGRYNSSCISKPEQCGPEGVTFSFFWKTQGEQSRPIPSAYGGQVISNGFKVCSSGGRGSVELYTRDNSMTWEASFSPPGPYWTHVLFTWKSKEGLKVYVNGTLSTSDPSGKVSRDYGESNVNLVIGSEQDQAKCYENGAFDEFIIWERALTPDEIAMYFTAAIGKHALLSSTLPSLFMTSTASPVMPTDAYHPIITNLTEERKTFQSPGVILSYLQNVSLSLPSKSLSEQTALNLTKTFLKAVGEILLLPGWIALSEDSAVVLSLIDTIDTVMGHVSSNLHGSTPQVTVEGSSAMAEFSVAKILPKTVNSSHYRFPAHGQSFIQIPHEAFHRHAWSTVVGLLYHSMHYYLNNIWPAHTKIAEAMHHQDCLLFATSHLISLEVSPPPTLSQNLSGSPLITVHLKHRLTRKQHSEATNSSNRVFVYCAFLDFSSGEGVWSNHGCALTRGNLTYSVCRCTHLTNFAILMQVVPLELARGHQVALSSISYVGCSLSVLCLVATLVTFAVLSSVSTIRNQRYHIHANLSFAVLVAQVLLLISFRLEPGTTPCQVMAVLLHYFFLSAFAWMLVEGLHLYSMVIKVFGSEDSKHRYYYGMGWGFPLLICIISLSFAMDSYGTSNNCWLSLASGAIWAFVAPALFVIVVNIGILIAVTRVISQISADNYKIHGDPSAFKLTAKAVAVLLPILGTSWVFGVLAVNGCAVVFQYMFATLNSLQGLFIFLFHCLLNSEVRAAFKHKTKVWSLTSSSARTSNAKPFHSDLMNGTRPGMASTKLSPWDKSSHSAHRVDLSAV
Procedure: as §1, §2

ADGRF1 [2] = assay: Cell-surface expression by flow cytometry, ADGRF1; type: cell-based, human; details: anti-Flag antibody, three independent measurements in duplicate
Procedure: The wild-type ADGRD1 and ADGRF1 and mutants used in functional studies were constructed into a pTT5 vector with a Flag tag at the N terminus for receptor expression measurement. The basal activity of ADGRD1 and ADGRF1 in mediating Gs signalling was measured by a cAMP accumulation assay using a LANCE Ultra cAMP detection kit (PerkinElmer) following the manufacturer’s instruction. In brief, 2 ml HEK293F cells (Invitrogen; cells were routinely tested for mycoplasma contamination) at a density of 1.2 × 10^6 cells per ml were transiently transfected with 2,000 ng plasmid of the wild-type or mutant receptor and cultured at 37 °C for 48 h with 5% CO2 atmosphere in a shaker shaking at 220 rpm. After collection, the cell-surface expression of the receptors was measured by incubating 10 μl cells with 15 μl monoclonal anti-Flag M2-FITC antibody (Sigma; 1:120 diluted in TBS supplemented with 4% BSA and 20% viability staining solution 7-AAD (Invitrogen)) at 4 °C for 20 min. After incubation, 175 μl TBS buffer was added and the fluorescent signal was measured using a flow cytometry reader (Guava easyCyte HT, Millipore).

[3] = ADGRF1 constructs (pF1 Gi part of table)

Molecule: TNAAILMQVVPLE [pD1 (F547^S3A)]
- Emax (mean ± s.e.m.) (ADGRD1): 69 ± 13 % of WT
- EC50 (ADGRD1): 724 nM

Molecule: TNFAIAMQVVPLE [pD1 (L550^S6A)]
- Emax (mean ± s.e.m.) (ADGRD1): 53 ± 5 % of WT
- EC50 (ADGRD1): 166 nM

Molecule: TSFSIAMSPFVP [pF1 (L572^S6A)]
- Emax (mean ± s.e.m.) (ADGRF1 [1]): 101 ± 12 % of WT
- EC50 (ADGRF1 [1]): 676 nM

B1: W804^6.53bA (protein, UniProt Q5T601 20-910, looked up, variant W804A)
Adhesion G-protein coupled …: T1 sequence (Q5T601 20-910) with W785A
- Cell-surface expression (% of WT) (ADGRF1 [2]; [3]): 93 ± 4 % of WT

B2: M675^3.47bA (protein, UniProt Q5T601 20-910, looked up, variant M675A)
Adhesion G-protein coupled …: T1 sequence (Q5T601 20-910) with M656A
- Cell-surface expression (% of WT) (ADGRF1 [2]; [3]): 107 ± 2 % of WT

B3: V689^ICL2A (protein, UniProt Q5T601 20-910, looked up, variant V689A)
Adhesion G-protein coupled …: T1 sequence (Q5T601 20-910) with V670A
- Cell-surface expression (% of WT) (ADGRF1 [2]; [3]): 112 ± 3 % of WT
- Cell-surface expression (% of WT) (ADGRF1 [2]; ADGRF1 constructs, in parallel to pF1-induced Gs activation): 114 ± 10 % of WT

B4: G702^4.45bY (protein, UniProt Q5T601 20-910, looked up, variant G702Y)
Adhesion G-protein coupled …: T1 sequence (Q5T601 20-910) with G683Y
- Cell-surface expression (% of WT) (ADGRF1 [2]; [3]): 87 ± 12 % of WT
- Cell-surface expression (% of WT) (ADGRF1 [2]; ADGRF1 constructs, in parallel to A8-induced Gi activation): 94 ± 1 % of WT
- Cell-surface expression (% of WT) (ADGRF1 [2]; ADGRF1 constructs, in parallel to A8-induced Gs activation): 104 ± 2 % of WT

B5: N827^7.46bA (protein, UniProt Q5T601 20-910, looked up, variant N827A)
Adhesion G-protein coupled …: T1 sequence (Q5T601 20-910) with N808A
- Cell-surface expression (% of WT) (ADGRF1 [2]; [3]): 97 ± 21 % of WT

B6: H820^7.39bA (protein, UniProt Q5T601 20-910, looked up, variant H820A)
Adhesion G-protein coupled …: T1 sequence (Q5T601 20-910) with H801A
- Cell-surface expression (% of WT) (ADGRF1 [2]; [3]): 77 ± 1 % of WT

Further lines, results first:

- Emax (mean ± s.e.m.) (ADGRF1 [1]): 82 ± 8 % of WT
- EC50 (ADGRF1 [1]): 132 nM
Molecule: CC[C@H](C)[C@H](NC(=O)[C@H](C)NC(=O)[C@H](Cc1ccccc1)NC(=O)[C@H](CC(N)=O)NC(=O)[C@@H](N)[C@@H](C)O)C(=O)N[C@@H](CC(C)C)C(=O)N[C@@H](CCSC)C(=O)N[C@@H](CCC(N)=O)C(=O)N[C@H](C(=O)N[C@H](C(=O)N1CCC[C@H]1C(=O)N[C@@H](CC(C)C)C(=O)N[C@@H](CCC(=O)O)C(=O)O)C(C)C)C(C)C [pD1]

- Emax (mean ± s.e.m.) (ADGRD1): 79 ± 10 % of WT
- EC50 (ADGRD1): 263 nM
Molecule: TNFAILAQVVPLE [pD1 (M551^S7A)]

- Emax (mean ± s.e.m.) (ADGRF1 [1]): 108 ± 7 % of WT
- EC50 (ADGRF1 [1]): 380 nM
Molecule: TSASILMSPFVP [pF1 (F569^S3A)]

- Emax (mean ± s.e.m.) (ADGRF1 [1]): 87 ± 11 % of WT
- EC50 (ADGRF1 [1]): 501 nM
Molecule: TSFSILASPFVP [pF1 (M573^S7A)]
